Source: PubChem BioAssay (NCI)
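Dose response: 5 concentrations. Exposure: 48 h. Format: 96-well plates. Endpoint: linear interpolation; highest concentration if not reached. GI50 = concentration required for 50% inhibition of growth. TGI marks complete inhibition of growth.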

Columns and labels:
Assay in all cases: DTP human tumour cell line panel, 48 h
[1] = test system: HL-60(TB) leukemia
[2] = test system: SR leukemia
[3] = test system: U251 CNS
[4] = test system: RXF 393 renal
[5] = test system: K-562 leukemia
[6] = test system: UACC-257 melanoma
[7] = test system: MOLT-4 leukemia
[8] = test system: TK-10 renal
[9] = test system: MDA-MB-231 breast
[10] = test system: SNB-75 CNS
[11] = test system: SK-OV-3 ovarian
[12] = test system: SNB-19 CNS
[13] = test system: MCF7 breast
[14] = test system: HCT-15 colon
[15] = test system: A498 renal
[16] = test system: SK-MEL-2 melanoma
[17] = test system: 786-0 renal
[18] = test system: SW-620 colon
[19] = test system: OVCAR-8 ovarian
[20] = test system: SF-539 CNS
[21] = test system: HOP-92 NSCLC
[22] = test system: NCI-H23 lung
[23] = test system: SN12C renal
[24] = test system: OVCAR-3 ovarian
[25] = test system: HOP-62 NSCLC
[26] = test system: MDA-MB-435
[27] = test system: HS 578T breast
[28] = test system: HCC-2998 colon
[29] = test system: KM12 colon
[30] = test system: UO-31 renal
[31] = test system: SF-295 CNS
[32] = test system: DU-145 prostate
[33] = test system: RPMI-8226 leukemia
[34] = test system: OVCAR-4 ovarian
[35] = test system: ACHN renal
[36] = test system: NCI-H460 lung
[37] = test system: T-47D breast
[38] = test system: IGROV1 ovarian
[39] = test system: SK-MEL-28 melanoma
[40] = test system: COLO 205 colon
[41] = test system: HCT-116 colon
[42] = test system: PC-3 prostate
[43] = test system: M14 melanoma
[44] = test system: A549 NSCLC
[45] = test system: NCI-H226 lung
[46] = test system: OVCAR-5 ovarian
[47] = test system: HT29 colon
[48] = test system: NCI/ADR-RES ovarian
[49] = test system: LOX IMVI melanoma
[50] = test system: UACC-62 melanoma
[51] = test system: SK-MEL-5 melanoma
[52] = test system: NCI-H522 lung
[53] = test system: SF-268 CNS
[54] = test system: MALME-3M melanoma
[55] = test system: CAKI-1 renal
[56] = test system: BT-549 breast

In the case of `CC(C)C[C@H](NC(=O)Cn1ccc(Nc2ccccc2)cc1=O)B(O)O`, the GI50 [1] was 3.32 µM, the TGI [1] was 72.6 µM and the GI50 [2] was 0.398 µM. The TGI [2] was > 100 µM, the GI50 [3] was 5.04 µM and the TGI [3] was > 100 µM. For the same molecule, the GI50 [4] was 1.81 µM, the TGI [4] was 4.78 µM and the GI50 [5] was 3.67 µM. The TGI [5] was > 100 µM, the GI50 [6] was 1.3 µM and the TGI [6] was 7.68 µM. For the same molecule, the GI50 [7] was 0.468 µM, the TGI [7] was 11.7 µM and the GI50 [8] was 3.28 µM. The TGI [8] was 25.3 µM, the GI50 [9] was 3.09 µM and the TGI [9] was 15.2 µM. For the same molecule, the GI50 [10] was 4.54 µM, the TGI [10] was 25.3 µM and the GI50 [11] was 11.5 µM. For the same molecule, the TGI [11] was > 100 µM, the GI50 [12] was 16.6 µM and the TGI [12] was > 100 µM. The GI50 [13] was 0.427 µM, the TGI [13] was > 100 µM and the GI50 [14] was 8.66 µM. For the same molecule, the TGI [14] was > 100 µM, the GI50 [15] was 1.07 µM and the TGI [15] was 6.78 µM. For the same molecule, the GI50 [16] was 1.81 µM, the TGI [16] was 21.3 µM and the GI50 [17] was 5.55 µM. For the same molecule, the TGI [17] was > 100 µM, the GI50 [18] was 2 µM and the TGI [18] was 23.9 µM. For the same molecule, the GI50 [19] was 5.47 µM, the TGI [19] was > 100 µM and the GI50 [20] was 0.781 µM. The TGI [20] was 5.81 µM, the GI50 [21] was 2.49 µM and the TGI [21] was 8.23 µM. For the same molecule, the GI50 [22] was 3.45 µM, the TGI [22] was > 100 µM and the GI50 [23] was 5.17 µM. The TGI [23] was 28 µM, the GI50 [24] was 0.512 µM and the TGI [24] was 2.78 µM. The GI50 [25] was 6.23 µM, the TGI [25] was 40.9 µM and the GI50 [26] was 0.593 µM. The TGI [26] was 2.29 µM, the GI50 [27] was 1.86 µM and the TGI [27] was 7.16 µM. It also gave a GI50 [28] of 2.02 µM, a TGI [28] of 4.76 µM and a GI50 [29] of 3.08 µM. The TGI [29] was 12.4 µM, the GI50 [30] was 5.59 µM and the TGI [30] was 39.6 µM. The GI50 [31] was 3.75 µM, the TGI [31] was 40.1 µM and the GI50 [32] was 10.7 µM. The TGI [32] was > 100 µM, the GI50 [33] was 0.345 µM and the TGI [33] was 0.949 µM. The GI50 [34] was 5.68 µM, the TGI [34] was > 100 µM and the GI50 [35] was 3.04 µM. The TGI [35] was > 100 µM, the GI50 [36] was 8.41 µM and the TGI [36] was 42.5 µM. For the same molecule, the GI50 [37] was 1.01 µM, the TGI [37] was 3.38 µM and the GI50 [38] was 6.27 µM. For the same molecule, the TGI [38] was > 100 µM, the GI50 [39] was 0.665 µM and the TGI [39] was 4.49 µM. For the same molecule, the GI50 [40] was 8.25 µM, the TGI [40] was > 100 µM and the GI50 [41] was 0.852 µM. It also gave a TGI [41] of 5.02 µM, a GI50 [42] of 5.06 µM and a TGI [42] of 36 µM. For the same molecule, the GI50 [43] was 1.74 µM, the TGI [43] was 13.7 µM and the GI50 [44] was 8.34 µM. The TGI [44] was > 100 µM, the GI50 [45] was 0.352 µM and the TGI [45] was 1.47 µM. For the same molecule, the GI50 [46] was 6.24 µM, the TGI [46] was 90 µM and the GI50 [47] was 1.06 µM. For the same molecule, the TGI [47] was 13.2 µM, the GI50 [48] was 65.6 µM and the TGI [48] was > 100 µM. It also gave a GI50 [49] of 0.645 µM, a TGI [49] of 2.27 µM and a GI50 [50] of 2.44 µM. For the same molecule, the TGI [50] was 18.1 µM, the GI50 [51] was 0.62 µM and the TGI [51] was 2.88 µM. The GI50 [52] was 0.932 µM, the TGI [52] was 6.44 µM and the GI50 [53] was 2.88 µM. For the same molecule, the TGI [53] was 18.6 µM, the GI50 [54] was 2.08 µM and the TGI [54] was 8.77 µM. The GI50 [55] was 4.02 µM, the TGI [55] was 60.4 µM and the GI50 [56] was 1.19 µM. For the same molecule, the TGI [56] was 11.7 µM.
